This note sets out measurements from US11174232B2, “Substituted heterocyclyl derivatives as CDK inhibitors” (Aurigene Discovery Technologies Limited, priority 2015, dated 2021).

The target in this experiment is CDK7/CycH/MNAT1 (Homo sapiens (Human), UniProt P50613). Put plainly: Biochemical Assay for CDK7 (TR-FRET kinase assay). As to conditions: 60 min pre-incubation with kinase, 1 mM ATP; for inhibition at 10 µM: 10 μM compound. The method, then: Biochemical Assay for CDK7:
The ability of compounds to inhibit CDK7 kinase activity was tested in a TR-FRET assay using 5 nM of CDK7/CycH/MNAT1 obtained from Invitrogen, USA. Test compounds were pre-incubated with the kinase at room temperature for 60 min. After the incubation, substrate mix [100 nM Ultra-light MBP (Perkin Elmer, USA) and 1 mM ATP (Sigma)] was added. The above reaction was stopped by the addition of 40 mM EDTA after 60 minutes of kinase reaction. 1 nM Eu-labelled antiphospho-MBP antibody [Perkin Elmer, USA] was added, mixed well and the fluorescence emission at 615 nm and 665 nm [excitation at 340 nm] was measured. The final DMSO concentration in the assay was 1%. For IC50 determination, appropriate concentrations were made by ⅓^rd serial dilutions of 10 mM DMSO stock solution of test compound. All the fluorescence measurements were made in a Victor 3 Multilabel Counter [Perkin Elmer, USA]. The IC50 was determined by fitting the dose response data to sigmoidal curve fitting equation using GraphPad Prism software V5. To identify compounds that inhibit CDK7 irreversibly, time depended inhibition studies were carried by pre-incubating compound with the enzyme at three time points (20, 60 and 180 min) and carrying out assay as described above.
The compounds were screened by the above mentioned assay procedure.
(In general: In TR-FRET formats the signal depends on donor and acceptor labels being close together.)

Bounds are passed on as bounds.

Sequence of CDK7/CycH/MNAT1 (P50613 whole entry): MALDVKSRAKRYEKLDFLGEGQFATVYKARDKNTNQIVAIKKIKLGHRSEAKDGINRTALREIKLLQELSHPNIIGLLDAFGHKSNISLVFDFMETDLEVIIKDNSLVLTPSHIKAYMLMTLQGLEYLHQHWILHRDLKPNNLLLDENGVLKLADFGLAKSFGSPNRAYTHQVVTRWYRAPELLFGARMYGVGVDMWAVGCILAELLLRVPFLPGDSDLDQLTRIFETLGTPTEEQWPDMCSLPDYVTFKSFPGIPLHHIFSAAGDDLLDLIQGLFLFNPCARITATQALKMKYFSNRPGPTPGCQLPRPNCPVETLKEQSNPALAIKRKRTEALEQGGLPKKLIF
Sequence of CDK7/CycH/MNAT1 (P51946 whole entry partner): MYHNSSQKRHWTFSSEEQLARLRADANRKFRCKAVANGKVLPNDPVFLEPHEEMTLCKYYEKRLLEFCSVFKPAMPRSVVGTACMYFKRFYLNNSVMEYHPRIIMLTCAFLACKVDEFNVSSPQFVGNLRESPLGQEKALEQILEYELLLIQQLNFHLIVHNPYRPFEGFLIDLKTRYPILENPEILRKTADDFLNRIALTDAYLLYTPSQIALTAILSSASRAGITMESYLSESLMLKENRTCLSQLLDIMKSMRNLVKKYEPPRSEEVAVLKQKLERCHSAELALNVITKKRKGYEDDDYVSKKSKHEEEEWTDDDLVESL
Sequence of CDK7/CycH/MNAT1 (P51948 whole entry partner): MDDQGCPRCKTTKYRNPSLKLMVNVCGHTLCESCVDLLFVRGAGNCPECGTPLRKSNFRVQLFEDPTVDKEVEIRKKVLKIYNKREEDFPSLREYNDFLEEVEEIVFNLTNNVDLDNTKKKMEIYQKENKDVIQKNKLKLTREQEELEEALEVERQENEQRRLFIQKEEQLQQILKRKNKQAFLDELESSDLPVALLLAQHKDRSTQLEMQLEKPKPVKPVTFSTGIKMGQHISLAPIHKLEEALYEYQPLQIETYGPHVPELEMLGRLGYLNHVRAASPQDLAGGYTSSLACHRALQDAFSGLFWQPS

The inhibition is the percentage by which the read-out fell short of the control. A lower inhibition goes with little suppression. In general, IC50 refers to the concentration needed to halve the response being measured. Turning to `CC(C(=O)Nc1cc(C(C)(C)C)[nH]n1)c1cccc(-c2ccc(NC(=O)/C=C/CN(C)C)cc2)c1` (stereo not shown) [Compound 9, (E)-N-(3′-(1-((5-(tert-butyl)-1H-pyrazol-3-yl)amino)-1-oxopropan-2-yl)-[1,1′-biphenyl]-4-yl)-4-(dimethylamino)but-2-enamide], the inhibition at 10 µM was determined as 60% and the IC50 is greater than 100 nM.

In turn, `CC(C(=O)Nc1cc(C2CC2)[nH]n1)c1cccc(-c2ccc(NC(=O)/C=C/CN3CCOCC3)nc2)c1` (stereo not shown) [Compound 10, (E)-N-(5-(3-(1-((5-cyclopropyl-1H-pyrazol-3-yl)amino)-1-oxopropan-2-yl)phenyl)pyridin-2-yl)-4-morpholinobut-2-enamide] had an inhibition at 10 µM of 99% and an IC50 of less than 25 nM.

Regarding `CCC(C(=O)Nc1cc(C2CC2)[nH]n1)c1cccc(-c2ccc(NC(=O)/C=C/CN(C)C)cc2)c1` (stereo not shown) [Compound 13, (E)-N-(3′-(1-((5-cyclopropyl-1H-pyrazol-3-yl)amino)-1-oxobutan-2-yl)-[1,1′-biphenyl]-4-yl)-4-(dimethylamino)but-2-enamide], the inhibition at 10 µM was found to be 97% and the concentration for half-maximal inhibition (IC50) lay within 25 to 100 nM.

Molecule `CC(C(=O)Nc1cc(C2CC2)[nH]n1)c1cccc(-c2ccc(NC(=O)/C=C/CN(C)C)c(F)c2)c1` (stereo not shown) [Compound 14, (E)-N-(3′-(1-((5-cyclopropyl-1H-pyrazol-3-yl)amino)-1-oxopropan-2-yl)-3-fluoro-[1,1′-biphenyl]-4-yl)-4-(dimethylamino)but-2-enamide] came in with an inhibition at 10 µM of 95% and an IC50 greater than 100 nM.

For `CC(C(=O)Nc1cc(C2CCC2)[nH]n1)c1cccc(-c2ccc(NC(=O)/C=C/CN(C)C)cc2)c1` (stereo not shown) [Compound 15, (E)-N-(3′-(1-((5-cyclobutyl-1H-pyrazol-3-yl)amino)-1-oxopropan-2-yl)-[1,1′-biphenyl]-4-yl)-4-(dimethylamino)but-2-enamide], the inhibition at 10 µM came to 93% and the concentration for half-maximal inhibition (IC50) is less than 25 nM.

For `CC(C(=O)Nc1cc(C2CC2)[nH]n1)c1cccc(-c2ccc(NC(=O)/C=C/CN(C)C)cn2)c1` (stereo not shown) [Compound 16, (E)-N-(6-(3-(1-((5-cyclopropyl-1H-pyrazol-3-yl)amino)-1-oxopropan-2-yl)phenyl)pyridin-3-yl)-4-(dimethylamino)but-2-enamide], the inhibition at 10 µM turned out to be 95% and the IC50 is 25 to 100 nM.

`CC(C(=O)Nc1cc(C2CC2)[nH]n1)c1cccc(-c2ccc(NC(=O)/C=C/CN(C)C)cc2F)c1` (stereo not shown) [Compound 17, (E)-N-(3′-(1-((5-cyclopropyl-1H-pyrazol-3-yl)amino)-1-oxopropan-2-yl)-2-fluoro-[1,1′-biphenyl]-4-yl)-4-(dimethylamino)but-2-enamide] had an inhibition at 10 µM of 80% and an IC50 greater than 100 nM.

As to `C=CC(=O)Nc1ccc(-c2cccc(C(C)C(=O)Nc3cc(C4CC4)[nH]n3)c2)cc1` (stereo not shown) [Compound 18, N-(3′-(1-((5-cyclopropyl-1H-pyrazol-3-yl)amino)-1-oxopropan-2-yl)-[1,1′-biphenyl]-4-yl)acrylamide], the inhibition at 10 µM worked out at 95% and the IC50 is greater than 100 nM.

Regarding `C=CC(=O)Nc1ccc(-c2cccc(C(C)C(=O)Nc3cc(C4CC4)[nH]n3)c2)cc1F` (stereo not shown) [Compound 19, N-(3′-(1-((5-cyclopropyl-1H-pyrazol-3-yl)amino)-1-oxopropan-2-yl)-3-fluoro-[1,1′-biphenyl]-4-yl)acrylamide], the inhibition at 10 µM was determined as 97% and the 50% inhibitory concentration (IC50) was 25 to 100 nM.

`C=CC(=O)Nc1ccc(-c2cccc(C(C)C(=O)Nc3cc(C4CC4)[nH]n3)c2)cn1` (stereo not shown) [Compound 20, N-(5-(3-(1-((5-cyclopropyl-1H-pyrazol-3-yl)amino)-1-oxopropan-2-yl)phenyl)pyridin-2-yl)acrylamide] yielded an inhibition at 10 µM of 100% and a 50% inhibitory concentration (IC50) of less than 25 nM.

For `C=CC(=O)Nc1ccc(-c2cc(C(C)C(=O)Nc3cc(C4CC4)[nH]n3)ccc2F)cc1F` (stereo not shown) [Compound 23, N-(5′-(1-((5-cyclopropyl-1H-pyrazol-3-yl)amino)-1-oxopropan-2-yl)-2′,3-difluoro-[1,1′-biphenyl]-4-yl)acrylamide], 10 µM produced 98% inhibition and the concentration for half-maximal inhibition (IC50) lay in the range of 25 to 100 nM.

`C=CC(=O)Nc1ccc(-c2cccc(C(C)C(=O)Nc3cc(C4CC4)[nH]n3)c2)nc1` (stereo not shown) [Compound 24, N-(6-(3-(1-((5-cyclopropyl-1H-pyrazol-3-yl)amino)-1-oxopropan-2-yl)phenyl)pyridin-3-yl)acrylamide] came in with an inhibition at 10 µM of 96% and a concentration for half-maximal inhibition (IC50) of 25 to 100 nM.

The molecule `C=CC(=O)Nc1ccc(-c2cccc(C(C(=O)Nc3cc(C4CC4)[nH]n3)C(C)C)c2)cc1F` (stereo not shown) [Compound 25, 2-(4′-acrylamido-3′-fluoro-[1,1′-biphenyl]-3-yl)-N-(5-cyclopropyl-1H-pyrazol-3-yl)-3-methylbutanamide] showed an inhibition at 10 µM of 97% and an IC50 of 25 to 100 nM.

The molecule `C=CC(=O)Nc1ccc(-c2cccc(C(CC)C(=O)Nc3cc(C4CC4)[nH]n3)c2)nc1` (stereo not shown) [Compound 26, 2-(3-(5-acrylamidopyridin-2-yl)phenyl)-N-(5-cyclopropyl-1H-pyrazol-3-yl)butanamide] returned an inhibition at 10 µM of 96% and an IC50 of less than 25 nM.

Molecule `C=CC(=O)Nc1ccc(-c2cccc(C(CC)C(=O)Nc3cc(C4CC4)[nH]n3)c2)cc1F` (stereo not shown) [Compound 27, 2-(4′-acrylamido-3′-fluoro-[1,1′-biphenyl]-3-yl)-N-(5-cyclopropyl-1H-pyrazol-3-yl)butanamide] yielded an inhibition at 10 µM of 98% and a 50% inhibitory concentration (IC50) of less than 25 nM.

For the molecule `CC(C(=O)Nc1cc(C2CCCC2)[nH]n1)c1cccc(-c2ccc(NC(=O)/C=C/CN(C)C)c(F)c2)c1` (stereo not shown) [Compound 28, (E)-N-(3′-(1-((5-cyclopentyl-1H-pyrazol-3-yl)amino)-1-oxopropan-2-yl)-3-fluoro-[1,1′-biphenyl]-4-yl)-4-(dimethylamino)but-2-enamide], 10 µM produced 96% inhibition and the concentration for half-maximal inhibition (IC50) fell in the range of 25 to 100 nM.

As to `CC(C(=O)Nc1cc(C2CC2)[nH]n1)c1cccc(-c2ccc3c(c2)CCN3C(=O)/C=C/CN(C)C)c1` (stereo not shown) [Compound 29, (E)-N-(5-cyclopropyl-1H-pyrazol-3-yl)-2-(3-(1-(4-(dimethylamino)but-2-enoyl)indolin-5-yl)phenyl)propanamide], 10 µM produced 97% inhibition and the IC50 was less than 25 nM.

In turn, `C=CC(=O)Nc1ccc(-c2cccc(C(C)C(=O)Nc3n[nH]c(C4CC4)c3C)c2)cc1` (stereo not shown) [Compound 30, N-(3′-(1-((5-cyclopropyl-4-methyl-1H-pyrazol-3-yl)amino)-1-oxopropan-2-yl)-[1,1′-biphenyl]-4-yl)acrylamide] came in with an inhibition at 10 µM of 28% and an IC50 greater than 100 nM.

Regarding `CCC(C(=O)Nc1cc(C2CC2)[nH]n1)c1cccc(-c2ccc(NC(=O)/C=C/CN(C)C)c(F)c2)c1` (stereo not shown) [Compound 31, (E)-N-(3′-(1-((5-cyclopropyl-1H-pyrazol-3-yl)amino)-1-oxobutan-2-yl)-3-fluoro-[1,1′-biphenyl]-4-yl)-4-(dimethylamino)but-2-enamide], the inhibition at 10 µM was determined as 100% and the half-maximal inhibitory concentration (IC50) was less than 25 nM.

For the molecule `CCN(CC)C/C=C/C(=O)Nc1ccc(-c2cccc(C(C)C(=O)Nc3cc(C4CC4)[nH]n3)c2)cc1F` (stereo not shown) [Compound 32, (E)-N-(3′-(1-((5-cyclopropyl-1H-pyrazol-3-yl)amino)-1-oxopropan-2-yl)-3-fluoro-[1,1′-biphenyl]-4-yl)-4-(diethylamino)but-2-enamide], testing at 10 µM gave an inhibition of 100% and the IC50 was less than 25 nM.
